From patent US20250341517A1, “SWITCHING PEPTIDE, IMMUNOASSAY DEVICE COMPRISING SAME, AND IMMUNOASSAY METHOD USING SAME” (OPTOLANE TECHNOLOGIES INC., priority 2021, published 2025)
Ends that are not written are not given here. FAM = carboxyfluorescein (FAM) fluorescent label

Tests used:
[1] = tested on: anti-HBsAG antibody; experiment: Fluorescence immunoassay with FAM switching peptide and TQ2 quenching material (FIGS. 9-12); type: binding; details: for fluorescence intensity, antigen selectivity: HBsAg
Description: FIG. 9 is a graph illustrating a fluorescence intensity measured after reacting an anti-HBSAG antibody to which an H2 switching peptide of Example 2 and a Tide-Quencher 2 (TQ2) quenching material are bound, with HBsAg, Inf A, Inf B (Florida), Inf B (Tokio), and PBS sample solutions, respectively.
FIG. 10 is a graph illustrating a fluorescence intensity measured after reacting the anti-HBsAG antibody to which the H2 switching peptide of Example 2 and the Tide-Quencher 2 (TQ2) quenching material are bound, with detection sample solutions each containing various concentrations of HBsAg antigens.
FIG. 11 is a graph illustrating a fluorescence intensity measured after binding the anti-HBsAG antibody to which the H2 switching peptide of Example 2 and the Tide-Quencher 2 (TQ2) quenching material are bound, to protein A beads and reacting it with detection sample solutions containing various concentrations of the HBsAg antigens.
FIG. 12 is graphs illustrating a fluorescence intensity measured after reacting the anti-HBsAG antibody to which one of the L1, H1, L2 and H2 switching peptides of Example 2 and the TQ2 quenching material is bound, with HRP, CRP, HBsAg, and hCG sample solutions, respectively.

[2] = tested on: L2 peptide; experiment: FRET test of specific interaction between H1 and L2 peptides on microplate (FIG. 4A); type: binding; details: H1 (TAMRA) and L2 (FAM); H1 concentration varied
Description: (§1) FIG. 4A is diagrams illustrating a method for confirming a specific interaction between L1 and H2 peptides and a specific interaction between L2 and H1 peptides and the measurement results thereof, and FIG. 4B is diagrams for explaining a specific interaction between L1 and H2 peptides and a specific interaction between L2 and H1 peptides analyzed using PyMOL software. Here, at the ends of the L1 and L2 peptides, a first fluorescent label, FAM (λex=488 nm, λem=532 nm) was modified, and at the ends of the H1 and H2 peptides, a second fluorescent label, TAMRA (ex=532 nm, hem=570 nm) was modified. Meanwhile, the first peptide (L1 or L2) was immobilized on a parylene-H-coated microplate through a covalent bond between a formyl group of parylene-H and a primary amine group of a lysine residue in the peptide, and a second peptide (H2 or H1) was incubated with the immobilized first peptide (L1 or L2) to allow specific interactions between them.

[3] = tested on: rabbit anti-HRP antibodies; experiment: Papain treatment of immobilized antibody with bound switching peptide (FIG. 7); type: binding; details: after papain treatment compared to before
Description: FIG. 7A is a schematic diagram illustrating states before and after treatment of the antibody to which the four types of peptides of Example 1 were bound, respectively, with papain, which is a protease, and FIG. 7B is graphs illustrating a fluorescence intensity measured at a bottom (B) of the microplate and in a solution(S) after the papain treatment. In the case of this experiment, after immobilization of the antibodies (rabbit anti-HRP antibodies) on the microplate, binding between the antibody and the switching peptide was induced by treatment with a fluorescently labeled switching peptide, the unbound switching peptide was removed, and then the Fab region was hydrolyzed from the immobilized antibodies by adding papain, which is a protease.
Referring to FIG. 7A, the fluorescence at the bottom (B) of the microplate is expected to decrease after the papain reaction because the fluorescently labeled switching peptides are bound to the Fab region of antibodies, and the fluorescence in the solution is expected to increase because the Fab region to which the switching peptide is bound is hydrolyzed and dissolved into the solution. This prediction is proven to be true from the graphs of FIG. 7B.

[4] = tested on: Anti-HRP antibody(r); experiment: Release of fluorescently labeled switching peptide from immobilized antibody on antigen binding (Table 4); parameters: species or system rabbit; details: after treatment with antigen HRP
[5] = tested on: Anti-HBsAg antibody(g); experiment: as above; parameters: species or system goat; details: after treatment with antigen HBsAg
[6] = tested on: Anti-hCG antibody(m); experiment: as above; parameters: species or system mouse
[7] = tested on: Anti-CRP antibody(r); experiment: as above; parameters: species or system rabbit
[8] = tested on: anti-HRP antibody from a rabbit; experiment: One-step immunoassay with varying HRP concentration (FIG. 8); type: binding; details: HRP 0.3 to 100 μM (FIG. 8B)
Description: FIG. 8A is a schematic diagram for explaining an immunoassay method using fluorescently labeled peptide compounds of Example 1, and FIGS. 8B and 8C are graphs illustrating the fluorescence intensity in a solution and at a bottom of the microplate depending on a concentration of the antigen measured by the immunoassay method illustrated in FIG. 8A. In this experiment, an anti-HRP antibody from a rabbit immobilized on a microplate was used as the binding antibody and HRP was used as the antigen.

[9] = tested on: H2 peptide; experiment: FRET test of specific interaction between L1 and H2 peptides on microplate (FIG. 4A); type: binding; details: L1 (FAM) and H2 (TAMRA); L1 concentration varied
Description: as §1

[10] = tested on: anti-HBsAG antibody; experiment: Graphene-quenched immunoassay with TAMRA L1 switching peptide (FIG. 13); type: binding; details: L1 labeled with TAMRA; graphene quenching material
Description: FIG. 13 is graphs illustrating a fluorescence intensity measured after binding an anti-HBsAg antibody to which an L1 switching peptide labeled with a TAMRA fluorescent label is bound, to a graphene quenching material and reacting it with an HBsAg sample solution.

[11] = tested on: anti-inf A antibody; experiment: Graphene-quenched immunoassay with TAMRA L1 switching peptide (FIG. 14); type: binding; details: L1 labeled with TAMRA; graphene quenching material
Description: FIG. 14 is a graph illustrating a fluorescence intensity measured after binding an anti-inf A antibody to which an L1 switching peptide labeled with a TAMRA fluorescent label is bound, to a graphene quenching material and reacting it with an Influenza A sample solution.

[12] = tested on: anti-SARS-COV-2 antibody; experiment: Graphene-quenched immunoassay with TAMRA L1 switching peptide (FIG. 15); type: binding; details: L1 labeled with TAMRA; graphene quenching material
Description: FIG. 15 is a graph illustrating a fluorescence intensity measured after binding an anti-SARS-COV-2 antibody to which an L1 switching peptide labeled with a TAMRA fluorescent label is bound, to a graphene quenching material and reacting it with a SARS-CoV-2 sample solution.

[13] = tested on: Inf-A; experiment: One-step immunoassay detection of Inf-A with switching-peptide-bound binding antibody (FIG. 18, 20B); parameters: species or system Influenza A; details: anti-Inf-A antibody bound to the peptide, treated with Inf-A, CRP, BSA
[14] = tested on: Inf-B; experiment: One-step immunoassay detection of Inf-B with switching-peptide-bound binding antibody (FIG. 19, 20D); details: antibody bound to the peptide, treated with Inf-A, CRP, BSA
Description: Therefore, an antibody bound to the L1 peptide or the H2 peptide may be used for selective detection of the Inf-B.
Therefore, binding antibodies bound to the two types of peptides may have similar responses upon detection of Inf-A.
In addition, since it can be confirmed that the baseline is maintained in the experiment with CoV strain 229E, which is a negative control, the immunoassay based on the two types of binding antibodies may be used to detect Inf-B in actual samples.
Therefore, the immunoassay device using the switching peptide according to the present disclosure may sensitively detect Inf-B in a much wider detection range than conventional rapid tests, and the one-step immunoassay method according to the present disclosure may be used for much more sensitive detection of Inf-A and Inf-B in the entire detection range compared to conventional rapid tests.

[15] = FAM switching peptides of Example 2, TQ2, HRP, CRP, hCG sample solutions (FIG. 12)

## FAM-VYYCAREPTGTGIYFDVWGK ({FAM}-VYYCAREPTGTGIYFDVWGK) [H2 switching peptide of Example 2]
[1]; TQ2 quencher, Inf A, Inf B (Florida), Inf B (Tokio), PBS sample solutions (FIG. 9)
  fluorescence intensity, antigen selectivity: high intensity fluorescence was measured only for the HBsAg antigen
[1]; TQ2 quencher, antibody bound to protein A beads (FIG. 11)
  fluorescence intensity versus HBsAg concentration: increased as the concentration of HBsAg antigens of the detection sample solution increased

## SYWIHWVKQRPGQGLEWIGE [H1, SYWIH WVKQR PGQGL EWIGE]
[2]
  FRET intensity: FRET intensity was observed to increase with increasing the concentration of the H1 peptide
[3]
  increase of fluorescence intensity in the solution: 2,184%
[4]
  fluorescence intensity at the bottom of the plate decreased by: 12.3%
[5]
  fluorescence intensity at the bottom of the plate decreased by: 41.1%
[6]
  In solution (S), Change (%): +206%
[7]
  In solution (S), Change (%): +152%
[8]
  fluorescence intensity in the solution versus antigen concentration: increase in the fluorescence intensity in the solution was observed depending on the concentration of the antigen
[1]; [15]
  fluorescence intensity, antigen selectivity: high intensity fluorescence was measured only for the HBsAg antigen

## TYLEWYPQKPGQSPKLLIYK [L1, TYLEW YPQKP GQSPK LLIYK]
[9]
  FRET intensity: FRET intensity increased with increasing the concentration of the L1 peptide
[3]
  increase of fluorescence intensity in the solution: 1,032%
[4]
  fluorescence intensity at the bottom of the plate decreased by: 12.7%
[5]
  fluorescence intensity at the bottom of the plate decreased by: 48.7%
[6]
  In solution (S), Change (%): +187%
[7]
  In solution (S), Change (%): +778%
[8]
  fluorescence intensity in the solution versus antigen concentration: increase in the fluorescence intensity in the solution was observed depending on the concentration of the antigen
[1]; [15]
  fluorescence intensity, antigen selectivity: high intensity fluorescence was measured only for the HBsAg antigen
[10]
  fluorescence intensity versus HBsAg concentration: increased almost linearly as the concentration of the HBsAg antigen contained in the HBsAg sample solution increased
[11]
  fluorescence intensity versus Influenza A antigen concentration: increased almost linearly as the concentration of the Influenza A antigen contained in the Influenza A sample solution increased
[12]
  fluorescence intensity versus SARS-COV-2 antigen concentration: increased as the concentration of the SARS-COV-2 antigen contained in the SARS-COV-2 sample solution increased
[13]
  fluorescence signal, selectivity: significantly higher fluorescence signal is generated when the Inf-A is treated
[14]
  fluorescence signal, selectivity: significantly higher fluorescence signal was generated when the Inf-B is treated

## VYYCAREPTGTGIYFDVWGK [H2, VYYCA REPTG TGIYF DVWGK]
[3]
  increase of fluorescence intensity in the solution: 2,356%
[4]
  fluorescence intensity at the bottom of the plate decreased by: 14.8%
[5]
  fluorescence intensity at the bottom of the plate decreased by: 63.9%
[6]
  In solution (S), Change (%): +416%
[7]
  In solution (S), Change (%): +677%
[8]
  fluorescence intensity in the solution versus antigen concentration: increase in the fluorescence intensity in the solution was observed depending on the concentration of the antigen
[1]; FAM switching peptides of Example 2, TQ2 (FIG. 12)
  specificity for the antigen compared with other switching peptides: specificity for the antigen was relatively low
[1]; [15]
  fluorescence intensity, antigen selectivity: high intensity fluorescence was measured only for the HBsAg antigen
[13]
  fluorescence signal, selectivity: significantly higher fluorescence signal is generated when the Inf-A is treated
[14]
  fluorescence signal, selectivity: significantly higher fluorescence signal was generated when the Inf-B is treated

## VYYCFQGSHVPFTK [L2, VYYCF QGSHV PFTK]
[3]
  increase of fluorescence intensity in the solution: 2,452%
[4]
  fluorescence intensity at the bottom of the plate decreased by: 25.5%
[5]
  fluorescence intensity at the bottom of the plate decreased by: 35.2%
[6]
  In solution (S), Change (%): +456%
[7]
  In solution (S), Change (%): +883%
[8]
  fluorescence intensity in the solution versus antigen concentration: increase in the fluorescence intensity in the solution was observed depending on the concentration of the antigen
[1]; [15]
  fluorescence intensity, antigen selectivity: high intensity fluorescence was measured only for the HBsAg antigen
